Results: article PMC5739799 (Oncotarget, 2017)
Like-named read-outs stand apart in the source and are kept apart here.

Assays:
[1] = test system: HCC-PDX model 10; experiment: Patient-derived HCC xenograft model 10, tumor growth; format: in vivo, BALB/c nude mice
Method: (§1) The PDX studies were carried out by WuXi AppTec (Shanghai, China). HCC-PDX models were originally established from surgically resected tumor tissue that was implanted in 6–8-week-old female BALB/c nude mice. Animal studies were performed according to the guidelines approved by the Institutional Animal Care and Use Committee of Wuxi AppTec, which follow the guidance of the Association for the Assessment and Accreditation of Laboratory Animal Care. Animals were routinely monitored for their health status and their body weights. Treatment was suspended and/or doses reduced at body weight losses >10%. Animals were euthanized when the tumor size exceeded 2000 mm^3. Pieces from tumor xenografts (∼30 mm^3) from passages 4–8 (ST1) were implanted subcutaneously at the right flank, and tumors were grown to an average size of about 150–200 mm^3. […] Tumor size was measured twice weekly using caliper measurements. Tumor volume (mm^3) was calculated using the formula 0.5 a × b^2, where a and b are the long and short diameters of the tumor, respectively. TGI was assessed either by calculating the ratio of the mean tumor volumes of treated and control groups or by determination of the RTV, which relates tumor volumes at any given day of treatment to the volume at the first treatment day.
(§2) In the syngenic orthotopic H129 model, differences in survival times between groups were analyzed for significance using log-rank tests. Analysis of tumor volumes of the HCC-PDX models was performed with log2-transformed values on defined days of measurement based on the assumption of their log-normal distribution. […] All respective statistical test results were derived from a common linear model that allows for individual variances in the different groups. The adjustment for multiple testing was carried out using Šidák correction at a significance level of 0.05. Back transformation of the mean difference of log2-transformed tumor volumes led to the ratios of the compared groups, whereby ratios of 1 reflect no difference in tumor volumes and ratios below or above 1 reflect smaller or larger tumor volumes, respectively, of the respective second group. The analyses of RTV were carried out in a similar fashion without the log2 transformation of values. Bead-based western data were analyzed (described in [15]) using the MEV 4.8.1 software package. A p-value <0.05 was regarded as significant. All statistical analyses were performed with SAS® 9.4 [34].

[2] = test system: HCC-PDX model 5; experiment: Patient-derived HCC xenograft model 5, tumor growth; format: in vivo, BALB/c nude mice
Method: as §1, §2

[3] = test system: HCC-PDX model 217; experiment: Patient-derived HCC xenograft model 217, tumor growth; format: in vivo, BALB/c nude mice
Method: as §1, §2

[4] = test system: HCC-PDX model 159; experiment: Patient-derived HCC xenograft model 159, tumor growth; format: in vivo, BALB/c nude mice
Method: as §1, §2

[5] = test system: HCC-PDX model 61; experiment: Patient-derived HCC xenograft model 61, tumor growth; format: in vivo, BALB/c nude mice
Method: as §1, §2

[6] = test system: 10 patient-derived HCC xenograft (HCC-PDX) models; experiment: Panel of 10 HCC-PDX models, overall response and tolerability; format: in vivo, BALB/c nude mice; details: 10 HCC-PDX models; regorafenib 10, sorafenib 30 mg/kg/day oral
Method: as §1
(§3) In the syngenic orthotopic H129 model, differences in survival times between groups were analyzed for significance using log-rank tests. Analysis of tumor volumes of the HCC-PDX models was performed with log2-transformed values on defined days of measurement based on the assumption of their log-normal distribution. […] All respective statistical test results were derived from a common linear model that allows for individual variances in the different groups. The adjustment for multiple testing was carried out using Šidák correction at a significance level of 0.05. […] Bead-based western data were analyzed (described in [15]) using the MEV 4.8.1 software package. […]

[7] = Steady-state plasma pharmacokinetics after oral dosing for 5 days; format: in vivo, BALB/c nu/nu mice
Method: Pharmacokinetic studies were performed in 6–8-week-old female BALB/c nu/nu mice (Charles River, Sulzfeld, Germany). […] Parent compounds and metabolites M-2 and M-5 were analyzed in plasma samples using validated bioanalytical liquid chromatography-tandem mass spectrometry (LC-MS/MS) methods according to an experimental protocol described earlier. PK parameters, namely the AUC(0–24)ss and Cmax, were calculated from plasma concentrations using a non-compartmental analysis.

[8] = test system: HCC-PDX model 19; experiment: Patient-derived HCC xenograft model 19, tumor growth; format: in vivo, BALB/c nude mice
Method: as §1, §2

[9] = test system: HCC-PDX model 189; experiment: Patient-derived HCC xenograft model 189, tumor growth; format: in vivo, BALB/c nude mice
Method: as §1, §2

[10] = test system: H129 hepatoma; experiment: Syngenic orthotopic H129 hepatoma mouse model, survival; format: in vivo, C3H/HeN mice; details: regorafenib 10 mg/kg/day oral, start 4–5 days after implantation, vehicle 27 days
Text: C3H/HeN mice aged 10–12 weeks with an average weight of 25 g were used for this model and were obtained from Charles River (Sulzfeld, Germany). Experiments were initiated after an acclimatizing period of at least 8 days. Syngenic murine H129 hepatoma cells (obtained from Dr. V. Schmitz, University of Bonn, Germany) were cultivated in RPMI medium, containing 10% fetal calf serum (FCS) and 5% glutamine. Cells were harvested in a subconfluent state (70–80%), prepared for injection of 5×10^4 cells/20 μL in growth factor-free Matrigel, and transplanted in the left upper liver lobe. Animals with surgical failures were marked and excluded from the experiment. Treatment was initiated 4–5 days after transplantation. One set of mice received regorafenib 10 mg/kg once daily, vehicle solution once daily, or no treatment (n=8 per treatment group). […] Treatments were given orally via gavage. The vehicle solution contained 10% Transcutol, 10% Cremophor, and 80% 0.9% NaCl. Animals were weighed twice a week and monitored daily for behavior and wound healing. […] Due to ascites formation in the peritoneum (a symptom of the disease), body weight was not used as part of the assessment. Animals were dissected to assess the cause of death unless they had died in their cage overnight.
as §3

[11] = test system: HCC-PDX model 141; experiment: Patient-derived HCC xenograft model 141, tumor growth; format: in vivo, BALB/c nude mice
Method: as §1, §2

[12] = day 28, R 10 / S 30 mg/kg/day oral starting dose
[13] = plasma analyte after oral regorafenib 10 mg/kg/day for 5 days

With `CNC(=O)c1cc(Oc2ccc(NC(=O)Nc3ccc(Cl)c(C(F)(F)F)c3)c(F)c2)ccn1` [Regorafenib] the “RTV Differences of least square-means, regorafenib vs sorafenib” value (from here on “RTV Differences … vs sorafenib”) ([1]; RTV analysis day R 40, S 30) was -99,327, the “log TV Ratio, compound vs vehicle (T/C)” value ([1]; day 12) was 0.15 and the “log TV Ratio, regorafenib vs sorafenib” value ([1]; day 12) was 0.53. For the same molecule, the “Mean TV” value ([1]; day 12, R 10 / S 30 mg/kg/day oral) was 332.11 mm^3, the “log TV Differences of least square-means, compound vs vehicle” value (shortened to “log TV Differences … vs vehicle”) ([1]; day 12, log2-transformed TV) was -27,077 and the “log TV Differences of least square-means, regorafenib vs sorafenib” value (“log TV Differences … vs sorafenib” below) ([1]; day 12, log2-transformed TV) was -0.9111. The RTV ([1]; end of study (RTV analysis day R 40, S 30)) was 9.15, the “log TV Ratio, compound vs vehicle (T/C)” value ([2]; day 28) was 0.13 and the “log TV Ratio, regorafenib vs sorafenib” value ([2]; day 28) was 0.73. The “Mean TV” value [2, 12] was 80.96 mm^3, the “log TV Differences … vs vehicle” value ([2]; day 28, log2-transformed TV) was -29,518 and the “log TV Differences … vs sorafenib” value ([2]; day 28, log2-transformed TV) was -0.4634. The “RTV Differences of least square-means, compound vs vehicle” value ([2]; day 46) was -60,049, the “RTV Differences … vs sorafenib” value ([2]; day 46) was -0.6001 and the RTV ([2]; end of study, day 46) was 1.14. For the same molecule, the “RTV Differences … vs sorafenib” value ([3]; RTV analysis day R 24, S 20) was -14,902, the “log TV Ratio, compound vs vehicle (T/C)” value ([3]; day 13) was 0.45 and the “log TV Ratio, regorafenib vs sorafenib” value ([3]; day 13) was 0.92. The “Mean TV” value ([3]; day 13, R 10 / S 30 mg/kg/day oral) was 932.43 mm^3, the “log TV Differences … vs vehicle” value ([3]; day 13, log2-transformed TV) was -11,395 and the “log TV Differences … vs sorafenib” value ([3]; day 13, log2-transformed TV) was -0.1276. The RTV ([3]; end of study (RTV analysis day R 24, S 20)) was 12.77, the “log TV Ratio, compound vs vehicle (T/C)” value ([4]; day 28) was 0.59 and the “log TV Ratio, regorafenib vs sorafenib” value ([4]; day 28) was 0.78. The “Mean TV” value [4, 12] was 864.43 mm^3, the “log TV Differences … vs vehicle” value ([4]; day 28, log2-transformed TV) was -0.7546 and the “log TV Differences … vs sorafenib” value ([4]; day 28, log2-transformed TV) was -0.3604. The “RTV Differences … vs sorafenib” value ([4]; day 35) was -0.6894, the RTV ([4]; end of study, day 35) was 9.04 and the RTV Differences of least square-means, regorafenib vs sorafenib ([5]; RTV analysis day R 42, S 36) was -19.5. For the same molecule, the “log TV Ratio, compound vs vehicle (T/C)” value ([5]; day 25) was 0.26, the “log TV Ratio, regorafenib vs sorafenib” value ([5]; day 25) was 0.72 and the “Mean TV” value ([5]; day 25, R 10 / S 30 mg/kg/day oral) was 331.96 mm^3. For the same molecule, the “log TV Differences … vs sorafenib” value ([5]; day 25, log2-transformed TV) was -0.4771, the RTV ([5]; end of study (RTV analysis day R 42, S 36)) was 5.43 and the “Models with significant tumor growth inhibition” value [6] was 8/10. The “AUC(0–24)ss (percent of total)” value ([7]; after oral regorafenib 10 mg/kg/day for 5 days, total = molar sum of regorafenib, M-2, M-5) was 90% of total, the AUC(0-t) ([7]; female, BALB/c nu/nu, mouse, plasma analyte after oral regorafenib 10 mg/kg/day for 5 days, read-out: AUC(0–24)ss) was 93100 ng·h/mL and the Cmax ([7]; female, BALB/c nu/nu, mouse, plasma analyte after oral regorafenib 10 mg/kg/day for 5 days, read-out: Cmax) was 10700 ng/mL. The “AUC(0–24)ss” value [7, 13] was 193 µmol·h/L, the Cmax [7, 13] was 22.2 µmol/L and the “Cumulated maximum concentration (Cmax)” value ([7]; regorafenib 10 mg/kg once daily for 5 days, parent plus metabolites) was 24.5 µmol/L. The “log TV Ratio, compound vs vehicle (T/C)” value ([8]; day 28) was 0.66, the “log TV Ratio, regorafenib vs sorafenib” value ([8]; day 28) was 1.06 and the “Mean TV” value [8, 12] was 542.38 mm^3. For the same molecule, the “log TV Differences … vs vehicle” value ([8]; day 28, log2-transformed TV) was -0.6083, the “log TV Differences … vs sorafenib” value ([8]; day 28, log2-transformed TV) was 0.08047 and the RTV Differences of least square-means, compound vs vehicle ([8]; day 42) was -24.1. For the same molecule, the “RTV Differences … vs sorafenib” value ([8]; day 42) was 0.5174, the RTV ([8]; end of study, day 42) was 5.21 and the “RTV Differences of least square-means, compound vs vehicle” value ([9]; day 21) was -31,656. The “RTV Differences … vs sorafenib” value ([9]; day 21) was -0.2628, the “log TV Ratio, compound vs vehicle (T/C)” value ([9]; day 21) was 0.42 and the “log TV Ratio, regorafenib vs sorafenib” value ([9]; day 21) was 0.88. The “Mean TV” value ([9]; day 21, R 10 / S 30 mg/kg/day oral starting dose) was 322.88 mm^3, the “log TV Differences … vs vehicle” value ([9]; day 21, log2-transformed TV) was -12,395 and the “log TV Differences … vs sorafenib” value ([9]; day 21, log2-transformed TV) was -0.1791. For the same molecule, the RTV ([9]; end of study, day 21) was 2.39, the “Median survival, days (95% CI)” value [10] was 36 (31, 38) days and the “Median survival, days (95% CI)” value ([10]; listed as regorafenib) was 36 days. For the same molecule, the “log TV Ratio, compound vs vehicle (T/C)” value ([11]; day 28) was 0.10, the “log TV Ratio, regorafenib vs sorafenib” value ([11]; day 28) was 0.76 and the “Mean TV” value [11, 12] was 89.74 mm^3. The “log TV Differences … vs sorafenib” value ([11]; day 28, log2-transformed TV) was -0.3980 and the RTV ([11]; end of study, day 42) was 1.04.
